Results from ChEMBL document CHEMBL5634138, “Discovery of a novel BLT2 antagonist for the treatment of inflammatory airway diseases” (Eur J Med Chem, 2023).
pEC50, pKi: −log10 of the molar value. Converted amounts (≈) assume the structure as drawn. The source made the active and inactive calls. The rule behind the calls is not given here.

Key:
CHO [1] = experiment: (§1) Cytotoxicity against CHO cells assessed as inhibition of cell growth at 10 uM incubated overnight by MTS assay reltive to control; type: toxicity, cell-based, Cricetulus griseus; conditions: chinese hamster, cho, 10 µM
Mus musculus [2] = experiment: Anti-asthmatic activity against OVA/LPS induced BALB/c mouse model assessed as decrease in bronchoalveolar lavage fluid (BALF) IL-5 level at 10 mg/kg, ip by ELISA method relative to control; type: functional; set-up: scale not given: the % may be the effect or the level left
[3] = Metabolic stability in mouse liver microsomes assessed as parent compound remaining measured after 30 mins in presence of […]; type: ADME, Microsome; conditions: read-out: Stability
Mus musculus [4] = experiment: Anti-asthmatic activity against OVA/LPS induced BALB/c mouse model assessed as decrease in bronchoalveolar lavage fluid (BALF) IL-5 level at 20 mg/kg, ip by ELISA method relative to control; type: functional; set-up: scale not given: the % may be the effect or the level left
Mus musculus [5] = experiment: Anti-asthmatic activity against OVA/LPS induced BALB/c mouse model assessed as reduction in bronchial hyper-response at 10 mg/kg, ip for one hr before every challenge on day 14 to 16 and measured after 17 days relative to control; type: functional; set-up: scale not given: the % may be the effect or the level left; conditions: time 17 day
[6] = Clearance in rat at 2 mg/kg, iv; type: ADME, organism-based; conditions: in vivo
[7] = AUC infinity in rat at 2 mg/kg, iv; type: ADME, organism-based; conditions: in vivo
Mus musculus [8] = experiment: Anti-asthmatic activity against OVA/LPS induced BALB/c mouse model assessed as decrease in bronchoalveolar lavage fluid (BALF) IL-13 level at 10 mg/kg, ip by ELISA method relative to control; type: functional; set-up: scale not given: the % may be the effect or the level left
[9] = Apparent volume of distribution in rat at 2 mg/kg, iv; type: ADME, organism-based; conditions: in vivo, read-out: Vd(app)
[10] = Solubility of the compound in deionized water; type: physicochemical; conditions: buffer
[11] = Metabolic stability in mouse liver microsomes assessed as parent compound remaining measured after 30 mins in absence of […]; type: ADME, Microsome; conditions: read-out: Stability
[12] = Metabolic stability in mouse liver microsomes assessed as parent compound remaining measured after 30 mins in absence of NADPH; type: ADME, Microsome; conditions: read-out: Stability
[13] = Oral bioavailability in rat at 20 mg/kg administered as solution; type: ADME, organism-based; conditions: in vivo
CHO [14] = experiment: Inhibition of Akt phosphorylation (unknown origin) expressed in CHO cells harbouring BLT2 by Western blot analysis; type: cell-based; conditions: Homo sapiens
[15] = Metabolic stability in mouse liver microsomes assessed as parent compound remaining measured after 30 mins in presence of NADPH; type: ADME, Microsome; conditions: read-out: Stability
[16] = Metabolic stability in human liver microsomes assessed as parent compound remaining measured after 30 mins in presence of NADPH; type: ADME, Microsome; conditions: read-out: Stability
[17] = Oral bioavailability in rat at 20 mg/kg administered as suspension; type: ADME, organism-based; conditions: in vivo
[18] = target: Leukotriene B4 receptor 1 (Homo sapiens) (UniProt Q15722); experiment: Antagonist activity at human BLT1 expressed in CHO cells assessed as inhibition of LTB4 induced cell migration at 10 uM measured after 3 hrs by chemotaxis assay; type: cell-based
[19] = Cmax in rat at 20 mg/kg, po administered as solution; type: ADME, organism-based; conditions: in vivo
[20] = AUC infinity in rat at 20 mg/kg, po administered as suspension; type: ADME, organism-based; conditions: in vivo
[21] = Tmax in rat at 20 mg/kg, po administered as suspension; type: ADME, organism-based; conditions: in vivo
[22] = Metabolic stability in human liver microsomes assessed as parent compound remaining measured after 30 mins in absence of NADPH; type: ADME, Microsome; conditions: read-out: Stability
[23] = Metabolic stability in human liver microsomes assessed as parent compound remaining measured after 30 mins in presence of […]; type: ADME, Microsome; conditions: read-out: Stability
Mus musculus [24] = experiment: Anti-asthmatic activity against OVA/LPS induced BALB/c mouse model assessed as decrease in bronchoalveolar lavage fluid (BALF) IL-4 level at 20 mg/kg, ip by ELISA method relative to control; type: functional; set-up: scale not given: the % may be the effect or the level left
[25] = AUC infinity in rat at 20 mg/kg, po administered as solution; type: ADME, organism-based; conditions: in vivo
[26] = Cmax in rat at 20 mg/kg, po administered as suspension; type: ADME, organism-based; conditions: in vivo
[27] = Metabolic stability in human liver microsomes assessed as parent compound remaining measured after 30 mins in absence of […]; type: ADME, Microsome; conditions: read-out: Stability
Mus musculus [28] = experiment: Anti-asthmatic activity against OVA/LPS induced BALB/c mouse model assessed as decrease in bronchoalveolar lavage fluid (BALF) IL-13 level at 20 mg/kg, ip by ELISA method relative to control; type: functional; set-up: scale not given: the % may be the effect or the level left
[29] = Half life in rat at 2 mg/kg, iv; type: ADME, organism-based; conditions: in vivo
[30] = Tmax in rat at 20 mg/kg, po administered as solution; type: ADME, organism-based; conditions: in vivo
[31] = target: T1, Leukotriene B4 receptor 2 (Homo sapiens, UniProt Q9NPC1); experiment: Displacement of 3H-LTB4 from human BLT2 expressed in CHO cell membrane assessed as inhibition constant incubated for 60 mins by liquid scintillation counter analysis
T1 sequence (Q9NPC1 whole entry): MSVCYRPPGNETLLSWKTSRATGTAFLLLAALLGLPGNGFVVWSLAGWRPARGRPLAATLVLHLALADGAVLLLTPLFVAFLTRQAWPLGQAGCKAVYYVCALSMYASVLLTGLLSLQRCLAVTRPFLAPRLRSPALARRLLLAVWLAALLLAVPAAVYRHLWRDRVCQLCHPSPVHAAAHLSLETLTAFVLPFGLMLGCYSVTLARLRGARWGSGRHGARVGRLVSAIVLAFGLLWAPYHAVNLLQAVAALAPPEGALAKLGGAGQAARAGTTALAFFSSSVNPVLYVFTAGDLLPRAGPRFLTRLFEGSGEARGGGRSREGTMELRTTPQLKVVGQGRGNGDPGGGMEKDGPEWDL

Mus musculus [32] = experiment: Anti-asthmatic activity against OVA/LPS induced BALB/c mouse model assessed as decrease in bronchoalveolar lavage fluid (BALF) IL-4 level at 10 mg/kg, ip by ELISA method relative to control; type: functional; set-up: scale not given: the % may be the effect or the level left
[33] = target: T2, Leukotriene B4 receptor 2 (Mus musculus, UniProt Q9JJL9); experiment: Agonist activity at mouse BLT2 expressed in CHO cells assessed as induction of calcium accumulation; type: functional, cell-based
T2 sequence (Q9JJL9 whole entry): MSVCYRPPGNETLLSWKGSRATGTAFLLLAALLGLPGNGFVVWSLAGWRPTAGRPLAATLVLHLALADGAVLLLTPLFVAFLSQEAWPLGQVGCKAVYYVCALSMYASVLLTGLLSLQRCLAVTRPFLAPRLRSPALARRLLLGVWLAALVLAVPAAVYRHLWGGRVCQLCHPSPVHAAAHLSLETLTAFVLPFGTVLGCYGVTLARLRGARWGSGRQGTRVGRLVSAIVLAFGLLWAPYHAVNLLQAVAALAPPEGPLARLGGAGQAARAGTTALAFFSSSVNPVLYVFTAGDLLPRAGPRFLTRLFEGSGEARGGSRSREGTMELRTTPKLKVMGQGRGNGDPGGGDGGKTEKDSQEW

[34] = target: T3, Leukotriene B4 receptor 2 (Mus musculus) (UniProt Q9JJL9); experiment: Displacement of 3[H]LTB4 from mouse BLT2 by competitive binding assay; conditions: filed as agonist
T3 sequence (whole entry): T2 sequence (Q9JJL9 whole entry)

[35] = as §1; type: toxicity, cell-based, Cricetulus griseus; conditions: chinese hamster, CHO cells, read-out: Activity

Chain of Leukotriene B4 receptor 1 (Homo sapiens) (Q15722 whole entry): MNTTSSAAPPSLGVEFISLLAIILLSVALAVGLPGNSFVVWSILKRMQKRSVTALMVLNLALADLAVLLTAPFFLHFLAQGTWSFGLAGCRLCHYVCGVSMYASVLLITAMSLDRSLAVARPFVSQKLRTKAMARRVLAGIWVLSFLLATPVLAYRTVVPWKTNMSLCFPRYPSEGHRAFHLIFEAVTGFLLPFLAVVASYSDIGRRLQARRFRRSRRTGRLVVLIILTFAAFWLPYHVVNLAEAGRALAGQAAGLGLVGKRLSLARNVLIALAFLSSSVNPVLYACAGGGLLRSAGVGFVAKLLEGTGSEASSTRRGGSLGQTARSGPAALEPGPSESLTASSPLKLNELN

## CCCCC(=O)N(Cc1ccc(-c2ccc(O)cc2)cc1)c1ccccc1
CHO [1]
  Activity: Non-Toxic

## CCCCC(=O)N(Cc1ccc(-c2ccc(OC)cc2)cc1)c1cccc(C(F)(F)F)c1
CHO [1]
  Activity: Non-Toxic

## CCCCC(=O)N(Cc1ccc(-c2ccc(O)cc2)nc1)c1cccc(F)c1
CHO [1]
  Activity: Non-Toxic

## CCCCC(=O)N(Cc1ccc(-c2ccc(OCC(=O)O)cc2)cc1)c1cccc(F)c1
Mus musculus [2]
  Activity: 33%
[3]
  remaining at 0.5 h: 91.7%
Mus musculus [4]
  Activity: 46%
Mus musculus [5]
  Activity: 59%
[6]
  clearance: 54 mL/min/kg
[7]
  AUC(0-inf): 600 ng·h/mL
Mus musculus [8]
  Activity: 19%
[9]
  Vd: 4.2 L/kg
[10]
  solubility: 0.033 µg/mL (≈ 0.0758 µM)
[11]
  remaining at 0.5 h: 92.9%
[12]
  remaining at 0.5 h: 88.3%
[13]
  bioavailability: 35%
CHO [14]
  inhibition: Active
[15]
  remaining at 0.5 h: 67.8%
[16]
  remaining at 0.5 h: 74.5%
[17]
  bioavailability: 24%
[18]
  Activity: inactive
[19]
  Cmax: 1100 ng/mL
[20]
  AUC(0-inf): 1500 ng·h/mL
[21]
  Tmax: 0.9 h
[22]
  remaining at 0.5 h: 98.1%
[23]
  remaining at 0.5 h: 94%
Mus musculus [24]
  Activity: 35%
[25]
  AUC(0-inf): 2200 ng·h/mL
[26]
  Cmax: 700 ng/mL
CHO [1]
  Activity: Non-Toxic
[27]
  remaining at 0.5 h: 98.8%
Mus musculus [28]
  Activity: 38%
[29]
  half-life: 1.4 h
[30]
  Tmax: 1 h
[31]
  pKi: 6.88
Mus musculus [32]
  Activity: 25%

## CCCCC(=O)N(Cc1ccc(-c2ccc(OC)cc2)cc1)c1cccc(C)c1
CHO [1]
  Activity: Non-Toxic

## CCCCC(=O)N(Cc1ccc(-c2ccc(C(=O)O)cc2)cc1)c1ccccc1F
CHO [1]
  Activity: Non-Toxic

## CCCCC(=O)N(Cc1ccc(-c2ccc(C(=O)O)cc2)cc1)c1ccccc1
CHO [1]
  Activity: Non-Toxic

## CCCCC(=O)N(Cc1ccc(-c2ccc(OCC(=O)O)cc2)cc1)c1cccc(C(F)(F)F)c1
CHO [1]
  Activity: Non-Toxic

## CCCCC(=O)N(Cc1ccc(-c2ccc(C(N)=O)cc2)cc1)c1ccccc1
CHO [1]
  Activity: Non-Toxic

## CCCCC(=O)N(Cc1ccc(-c2ccc(C(=O)N3CCN(C(C)C)CC3)cc2)cc1)c1ccccc1
CHO [1]
  Activity: Non-Toxic

## CCCCC(=O)N(Cc1ccc(-c2ccccc2C(=O)O)cc1)c1ccccc1
[33]
  pEC50: 7.70
[34]
  Activity: 5 nM

## CCCCC(=O)N(Cc1ccc(-c2ccc(OCC(=O)O)cc2)cc1)c1ccccc1
CHO [1]
  Activity: Non-Toxic

## CCCCC(=O)N(Cc1ccc(-c2ccc(OCCC(=O)O)cc2)cc1)c1cccc(F)c1
CHO [1]
  Activity: Non-Toxic

## CCCCC(=O)N(Cc1ccc(-c2ccc(O)cc2)cc1)c1cccc(C)c1
[35]
  inhibition at 10 µM: 24%

## CCCCC(=O)N(Cc1ccc(-c2ccc(C(=O)NCC(=O)O)cc2)cc1)c1ccccc1
CHO [1]
  Activity: Non-Toxic

## CCc1cc(C(C)=O)c(O)cc1OCCCCCC(C)(C)c1nn[nH]n1 [LY-255283]
Mus musculus [2]
  Activity: 48%
Mus musculus [5]
  Activity: 69%
Mus musculus [8]
  Activity: 38%
Mus musculus [32]
  Activity: 38%
